Assay results reported in US20260098008A1, “COVALENT, CHEMOGENETIC ACTIVATORS FOR K2P POTASSIUM CHANNELS AND USES THEREOF” (THE REGENTS OF THE UNIVERSITY OF CALIFORNIA, priority 2022, published 2026).

Legend:
K2P2.1 (TREK-1) [1] = molecular target: T1, K2P2.1 (TREK-1) (Mus musculus, UniProt P97438); assay: Whole-cell patch clamp in transfected HEK293 cells; format: cell-based; settings: 20 μM; for Fold-activation (I activator/I control): whole-cell currents
T1 construct: expressed in transfected cells; host or cells: Xenopus laevis oocytes injected with mRNA (pGEMHE/pMO vector)
T1 sequence (P97438 1-411 isoform P97438-2): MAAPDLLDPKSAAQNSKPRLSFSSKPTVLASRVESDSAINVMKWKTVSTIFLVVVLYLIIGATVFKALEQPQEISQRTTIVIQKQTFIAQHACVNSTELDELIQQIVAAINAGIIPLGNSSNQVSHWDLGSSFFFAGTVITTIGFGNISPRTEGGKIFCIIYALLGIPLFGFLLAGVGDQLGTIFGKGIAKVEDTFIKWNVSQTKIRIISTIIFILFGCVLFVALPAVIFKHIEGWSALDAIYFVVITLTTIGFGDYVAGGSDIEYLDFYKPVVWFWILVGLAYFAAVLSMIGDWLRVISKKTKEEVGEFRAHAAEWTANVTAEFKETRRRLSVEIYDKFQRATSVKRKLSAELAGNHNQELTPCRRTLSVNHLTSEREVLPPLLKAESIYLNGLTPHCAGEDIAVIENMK
Source text: (§1) Mouse K2P2.1 (TREK-1) (Genbank accession number: NP_034737.2), mouse K2P10.1 (TREK-2) (NM_001316665.1), mouse K2P4.1 (TRAAK) (NM_008431.3), human K2P4.1 (TRAAK) (NM_033310.2) and mouse K2P18.1(TRESK) (NM_207261.3) were used for this study. Point mutations were introduced by site-directed mutagenesis using custom primers and confirmed by sequencing before use. For studies using Xenopus oocytes, K2P channels were subcloned into a previously reported pGEMHE/pMO vector (46). For expression in HEK293 cells, mouse K2P2.1 (TREK-1) and mutants were expressed from a previously described pIRES2-EGFP vector in HEK293 cells (46,47). K2P2.1 (TREK-1) tandems were constructed by connecting the open reading frames for the individual subunits with a linker encoding the […] (SEQ ID NO: 19) sequence. Tandems used for HEK293 cells included an N-terminal HA tag ([…] (SEQ ID NO: 20)) on the first subunit.
50% confluent cells were co-transfected (in 35-mm diameter wells) with 10-100 ng of the K2P2.1 plasmid and 400 ng of an eGFP plasmid (for visualization) using LipofectAMINE 2000 (Invitrogen) for 24 h, after which the cells were either plated onto coverslips or the media exchanged with fresh media. Cells were plated onto Matrigel coated coverslips (BD Biosciences) 1-2 hours before experiments.
Whole-cell patch-clamp experiments with K2P2.1(TREK-1) and mutants were carried out 24-48 h after transfection. Acquisition and analysis for voltage-clamp experiments were performed using pCLAMP10 and an Axopatch 200B amplifier (Molecular Devices). Current-clamp experiments were acquired using an […] amplifier (Molecular Devices). Pipettes were pulled using a Flaming/Brown micropipette puller (P-97, Sutter Instruments) and flame-polished using a MF-830 microforge (Narishige). Electrode resistance after filling with pipette internal solution ranged from 2 to 5 MΩ. Currents were low-pass filtered at 2 kHz and sampled at 10 kHz. Pipette solution contained the following: 145 mM KCl, 3 mM MgCl2, 5 mM EGTA and 20 mM HEPES (pH 7.2 with KOH). Bath solution contained the following: 145 mM NaCl, 5 mM KCl, 1 mM CaCl2, 3 mM MgCl2 and 20 mM HEPES (pH 7.4 with NaOH). K2P2.1 currents were elicited by a 1 s ramp from −100 to +50 mV from a −80 mV holding potential. Current-clamp recordings were taken with no holding current (I=0). Only K2P2.1(TREK-1)^CG* whole-cell patches with basal currents between […] at 0 mV were used Criteria for A286F K2P2.1(TREK-1)^CG*. ML335 or CAT335 were applied at 20 μM in bath solution and were perfused at 3 ml min^−1 until potentiation stabilized (1-3 min). Data were analyzed using Clampfit 11 and GraphPad Prism 9.

K2P2.1 (TREK-1) [2] = molecular target: T1, K2P2.1 (TREK-1); assay: Two-electrode voltage clamp (TEVC) in Xenopus oocytes; format: cell-based; settings: for Fold-activation (I activator/I control): currents at 0 mV
Source text: as §1
Xenopus laevis oocytes were harvested according to UCSF IACUC Protocol AN129690 and digested using collagenase (Worthington Biochemical Corporation, #LS004183, 0.8-1.0 mg/mL) in Ca^21-free ND96 (96 mM NaCl, 2 mM KCl, 3.8 mM MgCl2, 5 mM HEPES pH 7.4) immediately post-harvest, as previously reported (31,33). Oocytes were maintained at 18° C. in ND96 (96 mM NaCl, 2 mM KCl, 1.8 mM CaCl2, 2 mM MgCl2, 5 mM HEPES pH 7.4) supplemented with antibiotics (100 units mL^−1 penicillin, 100 μg mL^−1 streptomycin, 50 μg mL^−1 gentimycin) and used for experiments within one week of harvest.
Defolliculated stage V-VI oocytes were microinjected with 0.5-36 ng mRNA and currents were recorded within 16-48 h hours of injection.
For recordings, oocytes were impaled with borosilicate recording microelectrodes (0.4-2.0 MΩ resistance) backfilled with 3 M KCl and were subjected to constant perfusion of ND96 at a rate of 3 ml min^−1. Recording solutions containing K2P activators were prepared immediately prior to use from DMSO stocks (20-100 mM), with final DMSO concentrations of 0.1%. Currents were evoked from a −80 mV holding potential followed by a 300 ms ramp from −150 mV to +50 mV. Data were recorded using a GeneClamp 500B amplifier (MDS Analytical Technologies) controlled by pCLAMP8 software (Molecular Devices), and digitized at 1 kHz using Digidata 1332 Å digitizer (MDS Analytical Technologies). For each recording, control solution (ND96) was perfused over a single oocyte until current was stable before switching to solutions containing the test compounds at various concentrations. Representative traces and dose response plots were generated in GraphPad Prism 9.

| SMILES | Reversibility of activation on washout (K2P2.1 (TREK-1) [1]) | Fold-activation (I activator/I control) (K2P2.1 (TREK-1) [1]) [fold] | Fold-activation after compound washout (K2P2.1 (TREK-1) [2]; 20 μM, after washout, Xenopus oocytes) [fold] | Fold-activation (I activator/I control) (K2P2.1 (TREK-1) [2]; 20 μM, Xenopus oocytes) [fold] | Reversibility of activation on washout (K2P2.1 (TREK-1) [2]; 20 μM, Xenopus oocytes) | Emax (IML335/Icontrol) (K2P2.1 (TREK-1) [2]; TEVC at 0 mV) [fold activation] | EC50 (K2P2.1 (TREK-1) [2]; TEVC at 0 mV, normalized to initial currents) [µM] |
| --- | --- | --- | --- | --- | --- | --- | --- |
| O=C(NCc1ccc(Cl)cc1Cl)c1ccc(N2C(=O)C=CC2=O)cc1 [CAT335] | fully reversible | 1.9 ± 0.2 | 4.0 ± 0.6 | 2.0±0.2 |  |  |  |
| CS(=O)(=O)Nc1ccc(C(=O)NCc2ccc(Cl)cc2Cl)cc1 [ML335, reference compound] |  | 6.2 ± 0.5 |  | 6.5 | immediate reversal | 15.8±1.3 | 24 ± 4 |
